The target in assay [1] is T1, CD73 (Homo sapiens, UniProt P21589).
T1 construct: purchased R&D system
T1 sequence (P21589 27-549): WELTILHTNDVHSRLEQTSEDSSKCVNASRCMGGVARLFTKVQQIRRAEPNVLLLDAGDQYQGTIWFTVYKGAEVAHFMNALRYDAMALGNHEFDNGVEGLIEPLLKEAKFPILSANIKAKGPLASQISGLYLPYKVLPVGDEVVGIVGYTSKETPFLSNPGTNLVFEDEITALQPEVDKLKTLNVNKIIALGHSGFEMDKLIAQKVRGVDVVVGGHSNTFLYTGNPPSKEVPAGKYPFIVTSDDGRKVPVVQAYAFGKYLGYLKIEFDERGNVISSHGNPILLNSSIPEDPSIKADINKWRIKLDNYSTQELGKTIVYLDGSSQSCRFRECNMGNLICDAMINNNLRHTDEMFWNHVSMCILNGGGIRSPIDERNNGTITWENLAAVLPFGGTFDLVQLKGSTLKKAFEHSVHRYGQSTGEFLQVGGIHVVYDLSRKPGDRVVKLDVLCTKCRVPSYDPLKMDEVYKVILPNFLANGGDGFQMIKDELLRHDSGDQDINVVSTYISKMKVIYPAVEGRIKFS
Kind of assay: CD73 Biochemical IC50 Assay. The conditions noted are these: final AMP 15 uM, final CD73 0.3 nM, 25 mM Tris pH 7.4, 5 mM MgCl2, no phosphate. The protocol: CD73 Biochemical IC50 Assay
Compound serial dilutions were pre-spotted into Thermo Nunc assay plate. 50 μL CD73 enzyme buffer (CD73 purchased from R&D system=0.6 nM, 25 mM Tris, pH 7.4, 5 mM MgCl2) was added into the assay plate and incubated for 15 mins. […] The samples were run using Rapid fire.

Assay [2] addresses T1, CD73. Format: biochemical. The conditions noted are these: 1 mM NaH2PO4 in enzyme buffer, final AMP 15 uM, final CD73 0.3 nM.
Assay [3] addresses T2, CD73 activity in MDA-MB-231-GFP cells (Homo sapiens, UniProt P21589).
T2 construct: endogenous in cells; host or cells: MDA-MB-231-GFP cells
T2 sequence (P21589 27-549): T1 sequence (P21589 27-549)
Kind of assay: MDA-MB-231 Cell Based CD73 Activity Assay (DMEM). The conditions noted are these: 3000 cells per well, DMEM medium with 10% human plasma, overnight compound treatment, AMP 200 uM.

Where two headings read alike, the source gives them in different places. A value given as a limit tells only on which side of the number the result lay.

For `O=c1[nH]cc(-c2cc([C@@H]3CC34CCC4)c3nccn3n2)c(=O)[nH]1` (racemic) [Example 5, (S)-5-(8-(spiro[2.3]hexan-1-yl)imidazo[1,2-b]pyridazin-6-yl)pyrimidine-2,4(1H,3H)-dione and (R)-5-(8-(spiro[2.3]hexan-1-yl)imidazo[1,2-b]pyridazin-6-yl)pyrimidine-2,4(1H,3H)-dione], the IC50 – broadly, the concentration that gives 50% inhibition – in assay [1] was at least 2500 nM. For `O=c1[nH]cc(-c2cc([C@@H]3C[C@H]3c3ccc(OC(F)(F)F)cc3)c3nccn3n2)c(=O)[nH]1` (racemic) [Example 48, 5-(8-((2S,2S)-2-(4-(trifluoromethoxy)phenyl)cyclopropyl)imidazo[1,2-b]pyridazin-6-yl)pyrimidine-2,4(1H,3H)-dione and 5-(8-((1R,2R)-2-(4-(trifluoromethoxy)phenyl)cyclopropyl)imidazo[1,2-b]pyridazin-6-yl)pyrimidine-2,4(1H,3H)-dione], the IC50 in assay [2] turned out to be 2.73 nM; in assay [1], 52.5 nM.

As to `O=c1[nH]cc(-c2cc([C@@H]3C[C@H]3c3ccc(C(F)(F)F)c(F)c3)c3nccn3n2)c(=O)[nH]1` (racemic) [Example 100, 5-(8-((2S,2S)-2-(3-fluoro-4-(trifluoromethyl)phenyl)cyclopropyl)imidazo[1,2-b]pyridazin-6-yl)pyrimidine-2,4(1H,3H)-dione and 5-(8-((1R,2R)-2-(3-fluoro-4-(trifluoromethyl)phenyl)cyclopropyl)imidazo[1,2-b]pyridazin-6-yl)pyrimidine-2,4(1H,3H)-dione], in assay [1], the half-inhibitory concentration (IC50) turned out to be 98.4 nM. This counts as double-digit nanomolar. As for `COc1ccccc1[C@@H]1C[C@H]1c1cc(-c2c[nH]c(=O)[nH]c2=O)nn2ccnc12` (racemic) [Example 101, 5-(8-((2S,2S)-2-(2-methoxyphenyl)cyclopropyl)imidazo[1,2-b]pyridazin-6-yl)pyrimidine-2,4(1H,3H)-dione and 5-(8-((1R,2R)-2-(2-methoxyphenyl)cyclopropyl)imidazo[1,2-b]pyridazin-6-yl)pyrimidine-2,4(1H,3H)-dione], the IC50 in assay [1] worked out at 15.9 nM.

As for `O=c1[nH]cc(-c2cc([C@@H]3C[C@H]3C3CC(F)(F)C3)c3nccn3n2)c(=O)[nH]1` (racemic) [Example 106, 5-(8-((1S,2R)-2-(3,3-difluorocyclobutyl)cyclopropyl)imidazo[1,2-b]pyridazin-6-yl)pyrimidine-2,4(1H,3H)-dione and 5-(8-((1R,2S)-2-(3,3-difluorocyclobutyl)cyclopropyl)imidazo[1,2-b]pyridazin-6-yl)pyrimidine-2,4(1H,3H)-dione], the IC50 in assay [1] turned out to be 105 nM.

For `O=c1[nH]cc(-c2cc([C@@H]3C[C@H]3C(F)(F)F)c3nccn3n2)c(=O)[nH]1` (racemic) [Example 107, 5-(8-((2S,2S)-2-(trifluoromethyl)cyclopropyl)imidazo[1,2-b]pyridazin-6-yl)pyrimidine-2,4(1H,3H)-dione and 5-(8-((1R,2R)-2-(trifluoromethyl)cyclopropyl)imidazo[1,2-b]pyridazin-6-yl)pyrimidine-2,4(1H,3H)-dione], in assay [1], it took 46.8 nM to reach half-maximal inhibition (IC50). Same read-out and setting: next, `O=c1[nH]cc(-c2cc([C@@H]3C[C@@]3(F)c3ccccc3)c3nccn3n2)c(=O)[nH]1` (racemic) [Example 108, 5-(8-((1R,2R)-2-fluoro-2-phenylcyclopropyl)imidazo[1,2-b]pyridazin-6-yl)pyrimidine-2,4(1H,3H)-dione and 5-(8-((1S,2S)-2-fluoro-2-phenylcyclopropyl)imidazo[1,2-b]pyridazin-6-yl)pyrimidine-2,4(1H,3H)-dione]: 35 nM. Turning to `N#Cc1nn(CC(F)(F)F)c2cc([C@H]3C[C@@H]3c3cc(-c4c[nH]c(=O)[nH]c4=O)nn4ccnc34)ccc12` (racemic) [Example 362, 6-((1S,2S)-2-(6-(2,4-dioxo-1,2,3,4-tetrahydropyrimidin-5-yl)imidazo[1,2-b]pyridazin-8-yl)cyclopropyl)-1-(2,2,2-trifluoroethyl)-1H-indazole-3-carbonitrile], the midpoint of the response in assay [3], the EC50, lay at 1 nM. Further, the IC50 in assay [2] stood at 2.98 nM.

Take `O=c1[nH]cc(-c2cc([C@H]3C[C@@H]3c3cnc(C(F)(F)F)s3)c3nccn3n2)c(=O)[nH]1` (racemic) [Example 365, 5-(8-((2S,2S)-2-(2-(trifluoromethyl)thiazol-5-yl)cyclopropyl)imidazo[1,2-b]pyridazin-6-yl)pyrimidine-2,4(1H,3H)-dione]: the response in assay [3] was half-maximal at 32.8 nM (EC50). Also, the midpoint of inhibition in assay [2], the IC50, lay at 7.62 nM.

As for `O=c1[nH]cc(-c2cc([C@H]3C[C@@H]3c3nc(C(F)(F)F)cs3)c3nccn3n2)c(=O)[nH]1` (racemic) [Example 367, 5-(8-((2S,2S)-2-(4-(trifluoromethyl)thiazol-2-yl)cyclopropyl)imidazo[1,2-b]pyridazin-6-yl)pyrimidine-2,4(1H,3H)-dione], the EC50 (commonly the concentration at which the effect is half-maximal) in assay [3] is 67.6 nM. In assay [2], the IC50 was 17.5 nM. In assay [3], `O=c1[nH]cc(-c2cc([C@H]3C[C@@H]3c3ccc(C(F)F)cn3)c3nccn3n2)c(=O)[nH]1` (racemic) [Example 379, 5-(8-((1S,2S)-2-(5-(difluoromethyl)pyridin-2-yl)cyclopropyl)imidazo[1,2-b]pyridazin-6-yl)pyrimidine-2,4(1H,3H)-dione] yielded an EC50 of 5.89 nM. The same molecule came in with an IC50 in assay [2] of 1.98 nM.

In turn, `O=C(NCC(F)(F)F)OC1CN(c2cc(-c3c[nH]c(=O)[nH]c3=O)nn3ncnc23)CC1(F)F` (racemic) [Example 436, 1-(6-(2,4-dioxo-1,2,3,4-tetrahydropyrimidin-5-yl)-[1,2,4]triazolo[1,5-b]pyridazin-8-yl)-4,4-difluoropyrrolidin-3-yl (2,2,2-trifluoroethyl)carbamate] came in with an EC50 in assay [3] of 0.43 nM. In assay [2], this molecule showed an IC50 of 0.13 nM. The molecule `O=c1[nH]cc(-c2cc([C@H]3C[C@@H]3c3ccc(OCC(F)F)cn3)c3nccn3n2)c(=O)[nH]1` (racemic) [Example 590, 5-(8-((2S,2S)-2-(5-(2,2-difluoroethoxy)pyridin-2-yl)cyclopropyl)imidazo[1,2-b]pyridazin-6-yl)pyrimidine-2,4(1H,3H)-dione] displayed an EC50 in assay [3] of 2.04 nM. In assay [2], half-maximal inhibition (IC50) was put at 1.05 nM. In assay [3], `O=c1[nH]cc(-c2cc([C@H]3C[C@@H]3c3cnc4cnn(CC(F)(F)F)c4c3)c3nccn3n2)c(=O)[nH]1` (racemic) [Example 614, 5-(8-((1S,2S)-2-(1-(2,2,2-trifluoroethyl)-1H-pyrazolo[4,3-b]pyridin-6-yl)cyclopropyl)imidazo[1,2-b]pyridazin-6-yl)pyrimidine-2,4(1H,3H)-dione] came in with an EC50 of 0.13 nM. In assay [2], the IC50 was found to be 2.06 nM. In assay [3], `O=c1[nH]cc(-c2cc(N3C[C@H](O)C(F)(F)C3)c3nccn3n2)c(=O)[nH]1` (single isomer, unassigned) [Example 527] had an EC50 of 16.3 nM. This molecule gave an IC50 in assay [2] of 5.66 nM. In the case of `O=c1[nH]cc(-c2cc(N3C[C@@H](O)C(F)(F)C3)c3nccn3n2)c(=O)[nH]1` (single isomer, unassigned) [Example 528], in assay [3], the EC50 amounted to 12.9 nM. Also, the IC50 in assay [2] was 6.25 nM.

Turning to `O=c1[nH]cc(-c2cc([C@H]3C[C@@H]3c3ccc4c(c3)ncn4CC(F)(F)F)c3nccn3n2)c(=O)[nH]1` [Example 324, 5-(8-((1S,2S)-2-(1-(2,2,2-trifluoroethyl)-1H-benzo[d]imidazol-5-yl)cyclopropyl)imidazo[1,2-b]pyridazin-6-yl)pyrimidine-2,4(1H,3H)-dione], the midpoint of the response in assay [3], the EC50, lay at 1.59 nM. In assay [2], the IC50 came to 1.15 nM. Regarding `O=c1[nH]cc(-c2cc([C@H]3C[C@@H]3c3ccc(F)cc3F)n3ncnc3n2)c(=O)[nH]1` [Example 416, 5-(7-((2S,2S)-2-(2,4-difluorophenyl)cyclopropyl)-[1,2,4]triazolo[1,5-a]pyrimidin-5-yl)pyrimidine-2,4(1H,3H)-dione], the EC50 in assay [3] was 33.5 nM. Half-maximal inhibition in assay [2] (IC50) was put at 0.71 nM. `O=c1[nH]cc(-c2cc([C@H]3C[C@@H]3c3ccc(C(F)(F)F)cc3)n3ncnc3n2)c(=O)[nH]1` [Example 417, 5-(7-((2S,2S)-2-(4-(trifluoromethyl)phenyl)cyclopropyl)-[1,2,4]triazolo[1,5-a]pyrimidin-5-yl)pyrimidine-2,4(1H,3H)-dione]: the EC50 in assay [3] is 12.6 nM. In assay [2], this molecule gave an IC50 of 0.87 nM. In assay [3], `O=c1[nH]cc(-c2cc([C@H]3C[C@@H]3c3cc4c(cnn4CC(F)(F)F)cc3F)c3ncc(F)n3n2)c(=O)[nH]1` [Example 613, 5-(3-fluoro-8-((1S,2S)-2-(5-fluoro-1-(2,2,2-trifluoroethyl)-1H-indazol-6-yl)cyclopropyl)imidazo[1,2-b]pyridazin-6-yl)pyrimidine-2,4(1H,3H)-dione] showed an EC50 of 0.71 nM. Besides, half-maximal inhibition in assay [2] (IC50) was put at 0.58 nM. In assay [3], `O=c1[nH]cc(-c2cc(N3C[C@@H]4C[C@H]3C(F)(F)C4)c3nccn3n2)c(=O)[nH]1` [Example 644, 5-(8-(6,6-difluoro-2-azabicyclo[2.2.1]heptan-2-yl)imidazo[1,2-b]pyridazin-6-yl)pyrimidine-2,4(1H,3H)-dione] displayed an EC50 of 1420 nM. For the same molecule, the IC50 in assay [2] is above 250 nM.

Source of the values: patent publication US12110294B2, “CD73 compounds” (Gilead Sciences, Inc., priority 2020, dated 2024).
